# Data taken from article PMC6481137, “Identification of Chinese Herbal Compounds with Potential as JAK3 Inhibitors” (Evidence-based Complementary and Alternative Medicine : eCAM, 2019).
# Target: T1, JAK3 kinase (Homo sapiens, UniProt P52333)
# T1 construct: JAK3 kinase domain (amino acids 781 to 1124)
# Test: ELISA kinase assay, poly(Glu,Tyr) substrate, […] ATP
# Type: biochemical
# T1 sequence (P52333 781-1124): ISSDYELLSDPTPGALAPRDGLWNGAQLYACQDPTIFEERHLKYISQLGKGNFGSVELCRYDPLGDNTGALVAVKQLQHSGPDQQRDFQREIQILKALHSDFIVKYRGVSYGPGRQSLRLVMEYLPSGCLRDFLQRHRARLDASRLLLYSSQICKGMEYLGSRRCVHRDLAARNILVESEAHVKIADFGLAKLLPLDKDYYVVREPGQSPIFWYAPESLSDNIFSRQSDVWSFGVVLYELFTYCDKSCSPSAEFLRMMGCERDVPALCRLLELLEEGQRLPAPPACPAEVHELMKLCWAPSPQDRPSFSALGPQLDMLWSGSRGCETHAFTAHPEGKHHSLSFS
row,Compound,IC50 [µM]
1,"C[C@H]1COC2=C1C(=O)C(=O)c1c2ccc2c1CCCC2(C)C [CRY, Cryptotanshinone]",~25
2,"COc1ccc(-c2oc3c(CC=C(C)C)c(O)cc(O)c3c(=O)c2O)cc1 [ICA, Icaritin]",~20
3,"O=C1Nc2ccccc2/C1=C1/Nc2ccccc2C1=O [IND, Indirubin]",~50
